Experimental data as given in patent US12378211B2, “Carbonic anhydrase inhibitors and antibiotics against multidrug resistant bacteria” (Purdue Research Foundation, priority 2018, dated 2025).
Converted amounts (≈) assume the structure as drawn.

Columns and labels:
Assay in all cases: MIC, broth microdilution in TSB
Format in all cases: cell-based
[1] = system: Enterococcus faecalis—S613 HM-334; conditions: Enterococcus; TSB; Table 7; read-out: MIC in TSB
Protocol: (§1) The minimum inhibitory concentrations (MICs) of the compounds and control drugs were determined using the broth microdilution method, according to guidelines outlined by the Clinical and Laboratory Standards Institute (CLSI). Enterococci strains were grown aerobically overnight on tryptone soya agar plates at 37° C., afterwards a bacterial solution equivalent to 0.5 McFarland standard was prepared and diluted in tryptone soy broth (TSB) to achieve a bacterial concentration of about 5×10^5 CFU/mL and seeded in 96-well well plates. Compounds and control drugs were added in the first row of the 96-well plates and serially diluted along the plates. Plates were then incubated aerobically at 37° C. for 18-20 hours. MICs reported in Table 1 are the minimum concentration of the compounds/control drugs that could inhibit completely the visual growth of the bacteria.

[2] = system: Enterococcus faecium E417-HM-965; conditions: Enterococcus faecium, E417HM965; TSB; Table 7; read-out: MIC in TSB
Protocol: as §1

[3] = system: Enterococcus faecium Patient #2-1-NR-31909; conditions: Enterococcus faecium; TSB; Table 7; read-out: MIC in TSB
Protocol: as §1

[4] = system: Enterococcus faecium Patient #3-1 NR-31912; conditions: Enterococcus faecium; TSB; Table 7; read-out: MIC in TSB
Protocol: as §1

[5] = system: Enterococcus fecalis Strain MMH594-NR31975; conditions: Enterococcus; TSB; Table 7; read-out: MIC in TSB
Protocol: as §1

[6] = system: Enterococcus fecalis Strain SF 24397 NR31970; conditions: Enterococcus; TSB; Table 7; read-out: MIC in TSB
Protocol: as §1

[7] = system: Enterococcus fecalis Strain SF 28073-NR31972; conditions: Enterococcus; TSB; Table 7; read-out: MIC in TSB
Protocol: as §1

[8] = system: Enterococcus fecalis Strain SF24413 NR31971; conditions: Enterococcus; TSB; Table 7; read-out: MIC in TSB
Protocol: as §1

| Compound | MIC [1] | MIC [2] | MIC [3] | MIC [4] | MIC [5] | MIC [6] | MIC [7] | MIC [8] |
| --- | --- | --- | --- | --- | --- | --- | --- | --- |
| NS(=O)(=O)c1nnc(NC(=O)C2CCC2)s1 [CAI0018, N-(5-Sulfamoyl-1,3,4-thiadiazol-2-yl)cyclobutanecarboxamide] | 1 µg/mL (≈ 3.81 µM) | 0.5 µg/mL (≈ 1.91 µM) | 0.25 µg/mL (≈ 0.953 µM) | 0.5 µg/mL (≈ 1.91 µM) | 0.5 µg/mL (≈ 1.91 µM) | 1 µg/mL (≈ 3.81 µM) | 1 µg/mL (≈ 3.81 µM) | 1 µg/mL (≈ 3.81 µM) |
| NS(=O)(=O)c1nnc(NC(=O)C2CC2)s1 [CAI0020, N-(5-Sulfamoyl-1,3,4-thiadiazol-2-yl)cyclopropanecarboxamide] | 0.007 µg/mL (≈ 0.0282 µM) | 0.007 µg/mL (≈ 0.0282 µM) | 0.001 µg/mL (≈ 0.00403 µM) | 0.007 µg/mL (≈ 0.0282 µM) | 0.007 µg/mL (≈ 0.0282 µM) | 0.015 µg/mL (≈ 0.0604 µM) | 0.003 µg/mL (≈ 0.0121 µM) | 0.015 µg/mL (≈ 0.0604 µM) |
| NS(=O)(=O)c1nnc(NC(=O)CC2CCCC2)s1 [CAI0021, 2-Cyclopentyl-N-(5-sulfamoyl-1,3,4-thiadiazol-2-yl)acetamide] | 0.03 µg/mL (≈ 0.103 µM) | 0.06 µg/mL (≈ 0.207 µM) | 0.003 µg/mL (≈ 0.0103 µM) | 0.03 µg/mL (≈ 0.103 µM) | 0.03 µg/mL (≈ 0.103 µM) | 0.03 µg/mL (≈ 0.103 µM) | 0.03 µg/mL (≈ 0.103 µM) | 0.06 µg/mL (≈ 0.207 µM) |
| NS(=O)(=O)c1nnc(NC(=O)C2CCCCC2)s1 [CAI0022, N-(5-Sulfamoyl-1,3,4-thiadiazol-2-yl)cyclohexanecarboxamide] | 0.25 µg/mL (≈ 0.861 µM) | 0.25 µg/mL (≈ 0.861 µM) | 0.015 µg/mL (≈ 0.0517 µM) | 0.125 µg/mL (≈ 0.43 µM) | 0.25 µg/mL (≈ 0.861 µM) | 0.25 µg/mL (≈ 0.861 µM) | 0.25 µg/mL (≈ 0.861 µM) | 0.5 µg/mL (≈ 1.72 µM) |
| NS(=O)(=O)c1nnc(NC(=O)C2CCCC2)s1 [CAI0023, N-(5-Sulfamoyl-1,3,4-thiadiazol-2-yl)cyclopentanecarboxamide] | 0.5 µg/mL (≈ 1.81 µM) | 0.25 µg/mL (≈ 0.905 µM) | 0.06 µg/mL (≈ 0.217 µM) | 0.25 µg/mL (≈ 0.905 µM) | 0.5 µg/mL (≈ 1.81 µM) | 0.5 µg/mL (≈ 1.81 µM) | 1 µg/mL (≈ 3.62 µM) | 0.5 µg/mL (≈ 1.81 µM) |
| CC(=O)Nc1nnc(S(C)(=O)=O)s1 [CAI0025, N-(5-(Methylsulfonyl)-1,3,4-thiadiazol-2-yl)acetamide] | > 128 µg/mL | > 128 µg/mL | > 128 µg/mL | > 128 µg/mL | > 128 µg/mL | > 128 µg/mL | > 128 µg/mL | > 128 µg/mL |
| CC(C)CC(=O)Nc1nnc(S(N)(=O)=O)s1 [CAI0026, 3-Methyl-N-(5-sulfamoyl-1,3,4-thiadiazol-2-yl)butanamide] | 0.25 µg/mL (≈ 0.946 µM) | 0.125 µg/mL (≈ 0.473 µM) | 0.003 µg/mL (≈ 0.0113 µM) | 0.125 µg/mL (≈ 0.473 µM) | 0.25 µg/mL (≈ 0.946 µM) | 0.25 µg/mL (≈ 0.946 µM) | 0.5 µg/mL (≈ 1.89 µM) | 0.25 µg/mL (≈ 0.946 µM) |
| CCCCCCC(=O)Nc1nnc(S(N)(=O)=O)s1 [CAI0027, N-(5-Sulfamoyl-1,3,4-thiadiazol-2-yl)heptanamide] | 0.007 µg/mL (≈ 0.0239 µM) | 0.015 µg/mL (≈ 0.0513 µM) | 0.001 µg/mL (≈ 0.00342 µM) | 0.007 µg/mL (≈ 0.0239 µM) | 0.015 µg/mL (≈ 0.0513 µM) | 0.007 µg/mL (≈ 0.0239 µM) | 0.015 µg/mL (≈ 0.0513 µM) | 0.015 µg/mL (≈ 0.0513 µM) |
| CC(C)(C)CC(=O)Nc1nnc(S(N)(=O)=O)s1 [CAI0028, 3,3-Dimethyl-N-(5-sulfamoyl-1,3,4-thiadiazol-2-yl)butanamide] | 0.03 µg/mL (≈ 0.108 µM) | 0.015 µg/mL (≈ 0.0539 µM) | 0.003 µg/mL (≈ 0.0108 µM) | 0.003 µg/mL (≈ 0.0108 µM) | 0.03 µg/mL (≈ 0.108 µM) | 0.015 µg/mL (≈ 0.0539 µM) | 0.03 µg/mL (≈ 0.108 µM) | 0.03 µg/mL (≈ 0.108 µM) |
| NS(=O)(=O)c1nnc(NC(=O)CC2CCCCC2)s1 [CAI0029, 2-Cyclohexyl-N-(5-sulfamoyl-1,3,4-thiadiazol-2-yl)acetamide] | 0.015 µg/mL (≈ 0.0493 µM) | 0.06 µg/mL (≈ 0.197 µM) | 0.001 µg/mL (≈ 0.00329 µM) | 0.03 µg/mL (≈ 0.0986 µM) | 0.015 µg/mL (≈ 0.0493 µM) | 0.007 µg/mL (≈ 0.023 µM) | 0.015 µg/mL (≈ 0.0493 µM) | 0.03 µg/mL (≈ 0.0986 µM) |
